Test results reported in US12054498B2, “Heteroaromatic macrocyclic ether chemotherapeutic agents” (Nuvalent, Inc., priority 2020, dated 2024).
Like-named read-outs stand apart in the source and are kept apart here.

Key:
ROS1-positive NSCLC = ROS1-positive NSCLC patients; cited from earlier work
[1] = from CCn1ccc(C(=O)c2nn(C)nc2-c2ccc(F)cc2[C@@H](C)Oc2cc(Br)cnc2N)c1; cc_pd bond; 12-membered ring; Pd(OAc)2/cataCXium A/KOAc; 2-methyl-2-butanol; 38.0 mM; 120.0 °C
[2] = cc_pd bond, Pd(OAc)2/cataCXium A, KOAc, 2-methyl-2-butanol, 120.0 °C
[3] = from Cc1nn(CC2CC2)cc1Cc1nn(C)nc1-c1ccc(F)cc1C(CO[Si](C)(C)C(C)(C)C)Oc1cc(Br)cnc1N; cc_pd bond; 12-membered ring; Pd(OAc)2/cataCXium A/KOAc; 2-methyl-2-butanol; 30.0 mM; 120.0 °C

C[C@@H](Oc1cc(-c2cnn(C3CCNCC3)c2)cnc1N)c1c(Cl)ccc(F)c1Cl [Crizotinib, crizotinib]
median progression-free survival (ROS1-positive NSCLC): 9-19 months
overall response rate (ROS1-positive NSCLC): 60-80%

CCn1ccc2c1-c1cnc(N)c(c1)O[C@H](C)c1cc(F)ccc1-c1nn(C)nc1C2=O
ring closure, yield after HPLC [1]: 15%
ring closure, yield of all isomers ([2]; from CCn1ccc(C(=O)c2nn(C)nc2-c2ccc(F)cc2[C@@H](C)Oc2cc(Br)cnc2N)c1, 38.0 mM, 12.0 h): 15%

Cc1nn(CC2CC2)c2c1Cc1nn(C)nc1-c1ccc(F)cc1C(CO[Si](C)(C)C(C)(C)C)Oc1cc-2cnc1N (stereo not drawn)
ring closure, yield of all isomers ([2]; from Cc1nn(CC2CC2)cc1Cc1nn(C)nc1-c1ccc(F)cc1C(CO[Si](C)(C)C(C)(C)C)Oc1cc(Br)cnc1N, 30.0 mM): 23%
ring closure, isolated yield [3]: 23%
